Assay results: patent US20240287463A1, “INDUCIBLE TISSUE CONSTRUCTS AND USES THEREOF” (Massachusetts Institute of Technology, priority 2020, published 2024)

Columns and labels:
iCasp9-GFP J2s = experiment: cell viability / removal from monolayer culture (CellTiter-Glo); format: cell-based; conditions: after CID exposure (500 nM, 50 nM, 5 nM in FIG. 1G)
From the text: Inducible caspase-9 (iCasp9), which is activated by treatment with a small molecule chemical inducer of dimerization (CID; also known as rapalog, an analog of rapamycin) and leads to subsequent cell death through the intrinsic apoptosis pathway was utilized (FIG. 1A). The safety and efficacy of the iCasp9 transgene and CID have previously been shown in vitro and in vivo in animals and humans (A. Di Stasi, et al. (2011) dx.doi.org/10.1056/NEJMoa1106152; T. Gargett and M. P. Brown (2014) Front. Pharmacol. 5; K. C. Straathof, et al. (2005) Blood 105, 4247, each of which is herein incorporated by this reference). To generate inducible cells, 3T3-J2 fibroblasts (‘J2’) were transduced with lentivirus with a bidirectional expression cassette encoding iCasp9 and GFP genes (#15567 pMSCV-F-del Casp9.IRES.GFP; cloned to a lentivirus plasmid backbone with an SFFV promoter). FACS was used to enrich the infected population for the 15% highest-expression GFP+ cells. […]
After iCasp9-GFP J2 fibroblasts were exposed to CID, iCasp9 dimers were detected by staining with a caspase-9 antibody (FIG. 1C). […] To confirm that CID-triggered caspase-9 activation led to apoptosis, unfixed cells were stained with Annexin V, which binds to an early indicator of apoptosis, and SYTOX, a general marker of cell death, and analyzed by flow cytometry.

HUVECs [1] = experiment: vascular network in HUVEC/iCasp9-HLF microfluidic devices after fibroblast removal; format: cell-based, human; conditions: iCasp9-HLFs removed after only 3 days of co-culture
HUVECs [2] = experiment: vascular perfusion in tri-culture microfluidic devices; format: cell-based, human; conditions: 50 nM CID after 5 days of tri-culture
From the text: Given that fibroblasts are only transiently required for supporting the formation of a functional vasculature, it was investigated whether CAMEO could be used in the vascularization of tissue constructs with organ-specific parenchymal cells without negatively affecting the function of the parenchymal cells. To investigate this, a tri-culture system of HUVECs, iCasp9-HDFs, and primary human hepatocytes was employed in the microfluidic device. Using the methods described in Example 5, a solution of HUVECs (3 million cells/mL), iCasp-9 HDFs (total of 6 million cells/mL), hepatic aggregates (0.36 million aggregates/mL with about 150 hepatocytes per aggregate), fibrinogen (2.5 mg/mL), thrombin (1 U/mL) was made in a 1:1 mixed media of EGM-2 and hepatocyte maintenance media. After 5 days of tri-culture, the devices were treated with 50 nM CID to remove the iCasp9-HDFs, or with vehicle control. All samples were fixed at day 7 to evaluate vascular perfusion (FIG. 8A). […] To evaluate whether the hepatocytes remained functional after CID treatment, levels of albumin and urea, markers for hepatic protein synthesis function and nitrogen metabolism, respectively, were measured in the media.

CC[C@H](C(=O)N1CCCC[C@H]1C(=O)O[C@H](CCc1ccc(OC)c(OC)c1)c1cccc(OCC(=O)NCC(CNC(=O)COc2cccc([C@@H](CCc3ccc(OC)c(OC)c3)OC(=O)[C@@H]3CCCCN3C(=O)[C@@H](CC)c3cc(OC)c(OC)c(OC)c3)c2)CN(C)C)c1)c1cc(OC)c(OC)c(OC)c1 [CID, AP20187]
time to efficient removal from culture (iCasp9-GFP J2s): ≤ 1 h
self-assembly of HUVECs at day 7 (HUVECs [1]): able to self-assemble into perfusable vasculature
vascular perfusion at day 7 (HUVECs [2]): formed perfusable vasculature
